According to patent US6703405B2, “Substituted 4-phenyltetrahydroisoquinolinium salts, process for their preparation, their use as a medicament, and medicament containing them” (Aventis Pharma Deutschland GmbH, priority 2001, dated 2004):
Where a name gives a salt, the structure may show the parent alone.

Biological target: T1, rNHE3 (Rattus norvegicus, UniProt P26433)
T1 construct: expressed in transfected cells
Experiment: recovery of intracellular pH (pHi) after acidification, BCECF fluorescence
Assay type: cell-based
Conditions: pH recovery recorded for three minutes with NHE3; bicarbonate-free conditions
Experimental: In this test, the recovery in the intracellular pH (pHi) after an acidification is ascertained, which is initiated if the NHE is capable of functioning, even under bicarbonate-free conditions. For this purpose, the pHi was determined using the pH-sensitive fluorescent dye BCECF (Calbiochem, the precursor BCECF-AM is employed). The cells were initially loaded with BCECF. The BCECF fluorescence was determined in a “Ratio Fluorescence Spectrometer” (Photon Technology International, South Brunswick, N.J., USA) at excitation wavelengths of 505 and 440 nm and an emission wavelength of 535 nm and converted into the pHi using calibration curves. The cells were incubated in NH4Cl buffer (pH 7.4) (NH4Cl buffer: 115 mM NaCl, 20 mM NH4Cl, 5 mM KCl, 1 mM CaCl2, 1 mM MgSO4, 20 mM Hepes, 5 mM glucose, 1 mg/ml BSA; a pH of 7.4 was adjusted with 1 M NaOH) even during the BCECF loading. The intracellular acidification was induced by adding 975 μl of an NH4Cl-free buffer (see below) to 25 μl aliquots of the cells incubated in NH4Cl buffer. The subsequent rate of pH recovery was recorded for two minutes with NHE1, five minutes with NHE2 and three minutes with NHE3. To calculate the inhibitory potency of the tested substances, the cells were initially investigated in buffers with which a complete or absolutely no pH recovery took place. For complete pH recovery (100%), the cells were incubated in Na^+-containing buffer (133.8 mM NaCl, 4.7 mM KCl, 1.25 mM CaCl2, 1.25 mM MgCl2, 0.97 mM Na2HPO4, 0.23 mM NaH2PO4, 5 mM Hepes, 5 mM glucose, a pH of 7.0 is adjusted with 1 M NaOH). To determine the 0% value, the cells were incubated in an Na^+-free buffer (133.8 mM choline chloride, 4.7 mM KCl, 1.25 mM CaCl2, 1.25 mM MgCl2, 0.97 mM K2HPO4, 0.23 mM KH2PO4, 5 mM Hepes, 5 mM glucose, a pH of 7.0 is adjusted with 1 M NaOH). The substances to be tested were made up in the Na^+-containing buffer. The recovery of the intracellular pH at each test concentration of a substance was expressed as a percentage of the maximum recovery. The IC50 value for the particular substance for the individual NHE subtypes was calculated from the pH recovery percentages using the Sigma-Plot program.

T1 sequence (P26433 29-831): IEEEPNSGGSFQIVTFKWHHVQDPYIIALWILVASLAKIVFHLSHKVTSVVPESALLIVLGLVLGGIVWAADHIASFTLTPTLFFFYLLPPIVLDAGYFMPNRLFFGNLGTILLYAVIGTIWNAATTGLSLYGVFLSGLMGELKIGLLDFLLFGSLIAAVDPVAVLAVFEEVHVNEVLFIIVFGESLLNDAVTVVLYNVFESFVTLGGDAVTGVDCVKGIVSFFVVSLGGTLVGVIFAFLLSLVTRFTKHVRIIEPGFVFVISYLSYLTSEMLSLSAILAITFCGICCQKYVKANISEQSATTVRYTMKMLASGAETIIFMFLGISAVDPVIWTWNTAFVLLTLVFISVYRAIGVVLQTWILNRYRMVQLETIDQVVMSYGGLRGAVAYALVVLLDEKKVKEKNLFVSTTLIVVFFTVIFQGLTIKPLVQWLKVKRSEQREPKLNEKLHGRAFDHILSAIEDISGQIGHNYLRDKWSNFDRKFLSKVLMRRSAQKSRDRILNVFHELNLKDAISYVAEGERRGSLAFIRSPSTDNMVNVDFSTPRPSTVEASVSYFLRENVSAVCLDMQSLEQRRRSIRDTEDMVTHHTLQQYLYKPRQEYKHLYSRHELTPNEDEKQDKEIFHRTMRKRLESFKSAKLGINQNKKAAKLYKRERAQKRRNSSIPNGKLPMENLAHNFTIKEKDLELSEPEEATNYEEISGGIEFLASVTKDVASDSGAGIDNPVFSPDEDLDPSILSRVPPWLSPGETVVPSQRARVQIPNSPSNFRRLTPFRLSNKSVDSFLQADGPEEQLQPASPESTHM

| IC50 [µM] | Compound |
| --- | --- |
| 0.23 | C[N+]1(C)Cc2c(Cl)cc(Cl)cc2C(c2ccccc2)C1 (centres unmarked) [Example 1, 6,8-Dichloro-2,2-dimethyl-4-phenyl-1,2,3,4-tetrahydroisoquinolinium, trifluoroacetate] |
| 0.67 | CC(=O)Nc1ccc(C2C[N+](C)(C)Cc3c(Cl)cc(Cl)cc32)cc1 (centres unmarked) [Example 3a, 4-(4-Acetylaminophenyl)-6,8-dichloro-2,2-dimethyl-1,2,3,4-tetrahydroisoquinolinium iodide] |
| 0.9 | C[N+]1(C)Cc2c(Cl)cc(Cl)cc2C(c2ccc(S(N)(=O)=O)cc2)C1 (centres unmarked) [Example 2, 6,8-Dichloro-2,2-dimethyl-4-(4-sulfamoylphenyl)-1,2,3,4-tetrahydroisoquinolinium, Trifluoroacetate] |
| 0.03 | C[N+]1(C)Cc2c(Cl)cc(Cl)cc2C(c2ccc(N)cc2)C1 (centres unmarked) [Example 4, 4-(4-Aminophenyl)-6,8-dichloro-2,2-dimethyl-1,2,3,4-tetrahydroisoquinolinium chloride, hydrochloride] |
| 0.43 | CC(=O)Nc1ccc(C2C[N+](C)(C)Cc3c(Cl)cc(Cl)cc32)cc1 (single isomer, unassigned; (+)) [Example 3c, (+)-4-(4-Acetylaminophenyl)-6,8-dichloro-2,2-dimethyl-1,2,3,4-tetrahydroisoquinolinium chloride] |
